Assay results as given in publication doi:10.1101/2023.10.24.563163v2, “Targeting cancer with small molecule pan-KRAS degraders” (biorxiv, 2024).
Read-outs that look alike come from different tables or passages of the source.

Key:
KRAS^G12V = KRAS^G12V (Homo sapiens, UniProt P01116, G12V); experiment: cell-based; set-up: endogenous; KRAS degradation by capillary electrophoresis immunodetection; conditions: SW-620; read-out: Dmax 24 h SW620 [%]
Experimental: (§1) Protein Detection by Capillary Electrophoresis Cells (50 000) were seeded the day before treatment into 96-well clear-flat bottom plates and incubated overnight (37 °C, humidified tissue culture incubator, 5% CO2). Compounds were added from DMSO stock solution using a digital dispenser and cells are incubated at 37 °C as specified (24 hours for KRAS degradation, 6 hours for determination of pERK levels). At the end of the incubation, medium was removed, cells washed with ice cold PBS, PBS removed and 50 µL lysis buffer (Meso Scale Discovery #R60TX-2) supplemented with 1:100 protease inhibitor solution, 1:100 phosphatase inhibitor I, 1:100 phosphatase inhibitor II (Meso Scale Discovery #R70AA-1), 0.5 µL/mL Benzonase (Novagen #70664-3) and 10 mM dithiothreitol added to each well. Plates with lysis buffer were immediately transferred to -80 °C freezer for at least 2 hours and then thawed on ice. Lysates were transferred to a 96 well V-bottom plate and insoluble debris was pelleted by centrifugation for 20 min. at 4 000 rpm. 40 µL of the supernatant were transferred to a fresh Eppendorf PCR plate. Analysis of protein levels was conducted using the Wes System, ProteinSimple (https://www.bio-techne.com/) as specified by the manufacturer. Briefly, Wes Master Mix (12-230 kDa WES Separation Module, 8 × 25 capillary cartridges, ProteinSimple #SM-W004) and molecular weight markers were prepared as specified in the manufacturer’s recommendations. To detect primary antibodies, anti-rabbit (Protein Simple #DM-001) or anti-mouse (Protein Simple #DM-002) detection modules were used. 7.2 µL lysate + 1.8 µL master mix were combined and heated to 95 °C for 5 min. […] Next, we set out to test the ability of a single pan-KRAS degrading molecule, compound 4, to selectively suppress oncogenic signaling and proliferation in cancer cell lines driven by diverse KRAS mutants. To this end, we first confirmed degradation of KRAS by compound 4 in KRAS-dependent (GP2d, SW620 and NCI-H358 expressing KRAS^G12D, - G12V or -G12C, respectively) as well as in KRAS independent (A-375, HEK293) cell lines (Fig. 3A, fig. S4A). […] Both inhibition and degradation repressed the established markers of MAPK signaling pERK (fig. S4B-D) and DUSP6 (Fig. 3B, fig. S4E) in KRAS dependent cell lines. […] Neither degradation nor inhibition had appreciable antiproliferative effects in the KRAS independent cell lines A-375 and HEK293 (Fig. 3C, fig. S4F).

NCI-H358 = experiment: cells; set-up: pERK levels by capillary electrophoresis; conditions: Homo sapiens, NCI-H358, 6 h
Experimental: Protein Detection by Capillary Electrophoresis Cells (50 000) were seeded the day before treatment into 96-well clear-flat bottom plates and incubated overnight (37 °C, humidified tissue culture incubator, 5% CO2). Compounds were added from DMSO stock solution using a digital dispenser and cells are incubated at 37 °C as specified (24 hours for KRAS degradation, 6 hours for determination of pERK levels). At the end of the incubation, medium was removed, cells washed with ice cold PBS, PBS removed and 50 µL lysis buffer (Meso Scale Discovery #R60TX-2) supplemented with 1:100 protease inhibitor solution, 1:100 phosphatase inhibitor I, 1:100 phosphatase inhibitor II (Meso Scale Discovery #R70AA-1), 0.5 µL/mL Benzonase (Novagen #70664-3) and 10 mM dithiothreitol added to each well. Plates with lysis buffer were immediately transferred to -80 °C freezer for at least 2 hours and then thawed on ice. Lysates were transferred to a 96 well V-bottom plate and insoluble debris was pelleted by centrifugation for 20 min. at 4 000 rpm. 40 µL of the supernatant were transferred to a fresh Eppendorf PCR plate. Analysis of protein levels was conducted using the Wes System, ProteinSimple (https://www.bio-techne.com/) as specified by the manufacturer. Briefly, Wes Master Mix (12-230 kDa WES Separation Module, 8 × 25 capillary cartridges, ProteinSimple #SM-W004) and molecular weight markers were prepared as specified in the manufacturer’s recommendations. To detect primary antibodies, anti-rabbit (Protein Simple #DM-001) or anti-mouse (Protein Simple #DM-002) detection modules were used. 7.2 µL lysate + 1.8 µL master mix were combined and heated to 95 °C for 5 min. Th

KRAS^WT = target: T1, KRAS^WT (Homo sapiens, UniProt P01116); experiment: cell-based; set-up: KRAS degradation by capillary electrophoresis immunodetection
T1 construct: endogenous wild type
T1 sequence (P01116 whole entry): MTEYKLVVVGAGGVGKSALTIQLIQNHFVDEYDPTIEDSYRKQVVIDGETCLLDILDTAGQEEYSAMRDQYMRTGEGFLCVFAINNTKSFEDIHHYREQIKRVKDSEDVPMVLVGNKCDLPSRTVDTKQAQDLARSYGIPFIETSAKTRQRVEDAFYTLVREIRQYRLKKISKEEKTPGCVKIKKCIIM
Experimental: as §1

KRAS^G12D = KRAS^G12D (Homo sapiens, UniProt P01116, G12D); experiment: cell-based; set-up: endogenous; KRAS degradation by capillary electrophoresis immunodetection; conditions: GP2d; read-out: Dmax 24 h GP2d [%]
Sequence of KRAS^G12D (P01116 whole entry G12D): as the sequence (P01116 whole entry) above, with G12D counted along it
Experimental: as §1

KRAS^G12C = KRAS^G12C (Homo sapiens, UniProt P01116, G12C); experiment: cell-based; set-up: endogenous; KRAS degradation by capillary electrophoresis immunodetection; conditions: NCI-H358; read-out: Dmax 24 h NCI-H358 [%]
Sequence of KRAS^G12C (P01116 whole entry G12C): as the sequence (P01116 whole entry) above, with G12C counted along it
Experimental: as §1

[1] = A-375, read-out: Dmax 24 h A375 [%]
[2] = HEK293, read-out: Dmax 24 h HEK293 [%]

Sequence of KRAS^G12V (P01116 whole entry G12V): as the sequence (P01116 whole entry) above, with G12V counted along it

Row | SMILES | Dmax (KRAS^G12V) [%] | IC50 (NCI-H358) [nM] | Dmax (KRAS^WT; [1]) [%] | Dmax (KRAS^WT; [2]) [%] | Dmax (KRAS^G12D) [%] | Dmax (KRAS^G12C) [%]
1 | Cc1ncsc1-c1ccc(CNC(=O)[C@@H]2C[C@@H](O)CN2C(=O)[C@@H](NC(=O)COCCCN2CCCN(c3nccc(-c4noc([C@@]5(C)CCCc6sc(N)c(C#N)c65)n4)n3)[C@@H](C)C2)C(C)(C)C)cc1 [compound 2] | 100 | – | – | – | – | –
2 | Cc1ncsc1-c1ccc(CNC(=O)C2CC(O)CN2C(=O)C(c2cc(OCCCCN3CCCN(c4nccc(-c5noc(C6(C)CCCc7sc(N)c(C#N)c76)n5)n4)C(C)C3)no2)C(C)C)cc1 (centres unmarked) [compound 5] | < 15 | > 1000 | < 15 | < 20 | < 15 | < 25
3 | Cc1ncsc1-c1ccc(CNC(=O)[C@@H]2C[C@@H](O)CN2C(=O)[C@@H](NC(=O)CCCCCN2CCCN(c3nccc(-c4noc([C@@]5(C)CCCc6sc(N)c(C#N)c65)n4)n3)[C@@H](C)C2)C(C)(C)C)cc1 [compound 3] | 88 | > 1000 | 76 | 48 | 96 | 81
4 | Cc1ncsc1-c1ccc([C@H](CO)NC(=O)[C@@H]2C[C@@H](O)CN2C(=O)[C@H](C(C)C)n2cc(OCCCCN3CCCN(c4nccc(-c5noc([C@@]6(C)CCCc7sc(N)c(C#N)c76)n5)n4)[C@@H](C)C3)nn2)cc1 [compound 7, ACBI3] | 83 | – | – | – | 99 | –
5 | Cc1ncsc1-c1ccc(CNC(=O)[C@@H]2C[C@@H](O)CN2C(=O)[C@@H](c2cc(OCCCCN3CCCN(c4nccc(-c5noc([C@@]6(C)CCCc7sc(N)c(C#N)c76)n5)n4)[C@@H](C)C3)no2)C(C)C)cc1 [compound 4] | 89 | 8.2 | 100 | – | 96 | 86
